Test results reported in US8163771B2, “11 β-HSD1 modulators” (Exelixis, Inc., priority 2008, dated 2012).

Target: T1, recombinant human 11 β-HSD1 (Homo sapiens, UniProt P28845)
T1 construct: made in house; host or cells: E. coli
Assay: 11 β-HSD1 SPA Assay (Scintillation Proximity Assay)
Format: biochemical
Outline: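 E. coli-expressed human enzyme (30-100 nM) with tritiated cortisone 40 nM and NADPH 1 mM in HEPES buffer pH7.4, 2 hours at room temperature. Stopped with protein A SPA beads carrying anti-cortisol antibody and glycyrrhetinic acid; counted after overnight incubation. IC50 from percent inhibition between no-enzyme and no-compound signals.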

T1 sequence (P28845 whole entry): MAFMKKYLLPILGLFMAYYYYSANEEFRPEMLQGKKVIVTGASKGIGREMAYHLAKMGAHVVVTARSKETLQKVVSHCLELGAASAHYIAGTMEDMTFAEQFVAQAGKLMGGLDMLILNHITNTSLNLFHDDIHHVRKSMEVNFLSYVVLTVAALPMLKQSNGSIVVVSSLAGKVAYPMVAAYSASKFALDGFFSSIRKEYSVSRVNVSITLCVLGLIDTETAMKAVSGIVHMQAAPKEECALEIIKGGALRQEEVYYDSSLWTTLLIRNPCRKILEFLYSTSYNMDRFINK

SMILES	IC50 [nM]
CC(C)(Oc1ccc(Cl)cc1S(C)(=O)=O)C(=O)N[C@H]1C[C@H]2CC[C@@H](C1)N2c1ccc(C(=O)NCC(F)F)cn1 [Example 422, 6-[3-endo-({2-[4-chloro-2-(methylsulfonyl)phenoxy]-2-methylpropanoyl}amino)-8-azabicyclo[3.2.1]oct-8-yl]-N-(2,2-difluoroethyl)pyridine-3-carboxamide]	< 200
O=C(NC1CC1)c1ccc(N2[C@@H]3CC[C@H]2C[C@@H](NC(=O)C2(c4ccc(Cl)cc4)CC2)C3)c(Cl)c1 [Example 118, 3-chloro-4-[3-endo-({[1-(4-chlorophenyl)cyclopropyl]carbonyl}amino)-8-azabicyclo[3.2.1]oct-8-yl]-N-cyclopropylbenzamide]	< 200
CC(C)(Oc1ccc(F)cc1C(F)(F)F)C(=O)NC1CC2CCC(C1)N2c1ccc(C(=O)NCC(O)C(F)(F)F)cn1 (stereo not drawn) [Example 459, 6-[3-endo-({2-[4-fluoro-2-(trifluoromethyl)phenoxy]-2-methylpropanoyl}amino)-8-azabicyclo[3.2.1]oct-8-yl]-N-(3,3,3-trifluoro-2-hydroxypropyl)pyridine-3-carboxamide]	< 200
CC(C)(Oc1nccc2ccccc12)C(=O)N[C@H]1C[C@H]2CC[C@@H](C1)N2c1ccc(C(N)=O)cn1 [Example 339, 6-(3-endo-{[2-(isoquinolin-1-yloxy)-2-methylpropanoyl]amino}-8-azabicyclo[3.2.1]oct-8-yl)pyridine-3-carboxamide]	< 200
CC(C)(Oc1ccnc2ccccc12)C(=O)N[C@H]1C[C@H]2CC[C@@H](C1)N2c1ccc(C(N)=O)cn1 [Example 318, 6-(3-endo-{[2-methyl-2-(quinolin-4-yloxy)propanoyl]amino}-8-azabicyclo[3.2.1]oct-8-yl)pyridine-3-carboxamide]	< 200
CC(C)(Oc1ccc(Cl)cc1C1CCCCC1)C(=O)N[C@H]1C[C@H]2CC[C@@H](C1)N2c1ccc(C(N)=O)cn1 [Example 285, 6-[3-endo-({2-[(4-chloro-2-cyclohexylphenyl)oxy]-2-methylpropanoyl}amino)-8-azabicyclo[3.2.1]oct-8-yl]pyridine-3-carboxamide]	< 200
CC(C)(Oc1ccc(Cl)cc1Cl)C(=O)N[C@H]1C[C@H]2CC[C@@H](C1)N2c1ccc(C(=O)NCC(=O)C(F)(F)F)cn1 [Example 476, 6-(3-endo-{[2-(2,4-dichlorophenoxy)-2-methylpropanoyl]amino}-8-azabicyclo[3.2.1]oct-8-yl)-N-(3,3,3-trifluoro-2-oxopropyl)pyridine-3-carboxamide]	< 200
CC(C)(Oc1ccc(Cl)cc1Cl)C(=O)N[C@H]1C[C@H]2CC[C@@H](C1)N2c1cc(C(=O)NC2CC2)ccn1 [Example 143, N-cyclopropyl-2-[3-endo-({2-[(2,4-dichlorophenyl)oxy]-2-methylpropanoyl}amino)-8-azabicyclo[3.2.1]oct-8-yl]pyridine-4-carboxamide]	< 2000
CC(C)(COc1ccc(Cl)cc1C(F)(F)F)C(=O)N[C@H]1C[C@H]2CC[C@@H](C1)N2c1ccc(C(=O)NCC(F)(F)F)cn1 [Example 312, 6-{3-endo-[(3-{[4-chloro-2-(trifluoromethyl)phenyl]oxy}-2,2-dimethylpropanoyl)amino]-8-azabicyclo[3.2.1]oct-8-yl}-N-(2,2,2-trifluoroethyl)pyridine-3-carboxamide]	< 200
CC(C)(Oc1c(Cl)cc(F)cc1Cl)C(=O)N[C@H]1C[C@H]2CC[C@@H](C1)N2c1ccc(S(N)(=O)=O)cn1 [Example 238, N-{8-[5-(aminosulfonyl)pyridin-2-yl]-8-azabicyclo[3.2.1]oct-3-endo-yl}-2-[(2,6-dichloro-4-fluorophenyl)oxy]-2-methylpropanamide]	< 200
CC(C)(CO)NC(=O)c1ccc(N2[C@@H]3CC[C@H]2C[C@@H](NC(=O)C(C)(C)Oc2ccc(Cl)cc2Cl)C3)nc1 [Example 395, 6-(3-endo-{[2-(2,4-dichlorophenoxy)-2-methylpropanoyl]amino}-8-azabicyclo[3.2.1]oct-8-yl)-N-(1-hydroxy-2-methylpropan-2-yl)pyridine-3-carboxamide]	< 200
CC(C)(Oc1cc(F)c(Cl)cc1Cl)C(=O)N[C@H]1C[C@H]2CC[C@@H](C1)N2c1ccc(C(=O)NCC(F)(F)F)cn1 [Example 90, 6-[3-endo-({2-[(2,4-dichloro-5-fluorophenyl)oxy]-2-methylpropanoyl}amino)-8-azabicyclo[3.2.1]oct-8-yl]-N-(2,2,2-trifluoroethyl)pyridine-3-carboxamide]	< 200
O=C(NC1CC1)c1ccc(N2[C@@H]3CC[C@H]2C[C@@H](NC(=O)C2(Oc4ccc(Cl)cc4)CCC2)C3)nc1 [Example 47, 6-{3-endo-[({1-[(4-chlorophenyl)oxy]cyclobutyl}carbonyl)amino]-8-azabicyclo[3.2.1]oct-8-yl}-N-cyclopropylpyridine-3-carboxamide]	< 200
CS(=O)(=O)c1ccc(N2[C@@H]3CC[C@H]2C[C@@H](NC(=O)C2(c4ccc(F)c(F)c4)CC2)C3)nc1 [Example 281, 1-(3,4-difluorophenyl)-N-{8-[5-(methylsulfonyl)pyridin-2-yl]-8-azabicyclo[3.2.1]oct-3-endo-yl}cyclopropanecarboxamide]	< 2000
CC(C)(Oc1ccc(Cl)cc1)C(=O)N[C@H]1C[C@H]2CC[C@@H](C1)N2c1ccc(C(=O)NCC(F)(F)F)cn1 [Example 27, 6-[3-endo-({2-[(4-chlorophenyl)oxy]-2-methylpropanoyl}amino)-8-azabicyclo[3.2.1]oct-8-yl]-N-(2,2,2-trifluoroethyl)pyridine-3-carboxamide]	< 200
CC(C)(Oc1ccc(Cl)cc1OC(F)(F)F)C(=O)N[C@H]1C[C@H]2CC[C@@H](C1)N2c1ccc(C(=O)NCC(F)F)cn1 [Example 401, 6-(3-endo-(2-(4-chloro-2-(trifluoromethoxy)phenoxy)-2-methylpropanamido)-8-azabicyclo[3.2.1]octan-8-yl)-N-(2,2-difluoroethyl)nicotinamide]	< 200
CC(C)(Oc1ccc(Cl)cc1CO)C(=O)N[C@H]1C[C@H]2CC[C@@H](C1)N2c1ccc(C(=O)NCC(F)(F)F)cn1 [Example 376, 6-[3-endo-({2-[4-chloro-2-(hydroxymethyl)phenoxy]-2-methylpropanoyl}amino)-8-azabicyclo[3.2.1]oct-8-yl]-N-(2,2,2-trifluoroethyl)pyridine-3-carboxamide]	< 200
O=C(NC1CC1)c1ccc(N2[C@@H]3CC[C@H]2C[C@@H](NC(=O)C2(c4ccc(Cl)cc4)CC2)C3)nc1 [Example 1, 6-[3-endo-({[1-(4-chlorophenyl)cyclopropyl]carbonyl}amino)-8-azabicyclo[3.2.1]oct-8-yl]-N-cyclopropylpyridine-3-carboxamide]	< 200
CC(C)(Oc1ccc(Cl)cc1C(F)(F)F)C(=O)N[C@H]1C[C@H]2CC[C@@H](C1)N2c1ccc(-c2nnn[nH]2)nc1 [Example 306, 2-{[4-chloro-2-(trifluoromethyl)phenyl]oxy}-2-methyl-N-{8-[6-(1H-tetrazol-5-yl)pyridin-3-yl]-8-azabicyclo[3.2.1]oct-3-endo-yl}propanamide]	< 200
CC(C)(Oc1ccc(Cl)cc1Cl)C(=O)N[C@H]1C[C@H]2CC[C@@H](C1)N2c1ccc(C(=O)NCC(F)F)cn1 [Example 355, 6-(3-endo-{[2-(2,4-dichlorophenoxy)-2-methylpropanoyl]amino}-8-azabicyclo[3.2.1]oct-8-yl)-N-(2,2-difluoroethyl)pyridine-3-carboxamide]	< 200
